# Measured values taken from patent publication US4657856A (priority 1980, dated 1987).
# Legend:
# [1] = tested on: glutathione peroxidase produced from Mucor hiemalis YR-0929; test: substrate specificity of glutathione peroxidase (NADPH/glutathione reductase coupled assay, 340 nm); format: biochemical; conditions: hydroperoxide as substrate of the enzyme; cumene hydroperoxide = 100
# Method: The reaction is illustrated by the following formulae (1) and (2): [drawing 1] wherein GSSG represents oxidized glutathione, NADPH represents reduced nicotinamide adenine dinucleotide phosphate […] and NADP represents nicotinamide adenine dinucleotide phosphate.
# (1) Substrate: 30 mM Cumene hydroperoxide aqueous solution: 0.2 ml
# (2) Buffer: 100 mM Phosphate buffer (pH 7.0) containing 4 mM EDTA: 1.5 ml
# (3) Reduced glutathione: 10 mM Aqueous solution: 0.3 ml
# (4) Sodium azide: 10 mM Aqueous solution: 0.3 ml
# (5) NADPH*: 1.6 mM Aqueous solution: 0.3 ml
# (6) Glutathione reductase solution: Prepared by diluting with 100 mM phosphate buffer (pH 7.0) to 1 u/ml: 0.3 ml
# (7) Enzyme solution: 0.1 ml
# This enzyme acts upon cumene hydroperoxide, t-butyl hydroperoxide, linolenic acid hydroperoxide, etc.
# [2] = tested on: glutathione peroxidase produced from Mucor hiemalis YR-0929; test: inhibition of glutathione peroxidase enzymatic action; format: biochemical; conditions: 25° C., pH 7.0
# Method: When reacted at 25° C. and pH 7.0, this enzymatic action is inhibited by the following substances.
# [3] = inhibitor concentration 10^-3 M
# [4] = inhibitor concentration 10^-4 M
Molecule,Relative Activity (%) [1] [%],"Percent Inhibition (%) [2, 3] [%]","Percent Inhibition (%) [2, 4] [%]"
CC(C)(OO)c1ccccc1 [Cumene hydroperoxide],100,,
NC(=O)CI [Iodoacetamide],,16,1
CCN1C(=O)C=CC1=O [N--Ethylmaleimide],,93,3
"O=C(O)c1cc[c]([Hg][Cl])cc1 [PCMB, Parachloromercurybenzoate]",,99,75
CC(C)(C)OO [t-Butyl hydroperoxide],175,,
Linolenic acid hydroperoxide,98,,
